One compound from article PMC10354012, “Cloxyquin activates hTRESK by allosteric modulation of the selectivity filter” (Communications Biology, 2023) can be followed below.

The structures appear in SMILES notation.

The target of this assay is T1, hTRESK (TWIK-related spinal cord K+ channel, K2P18.1) (Homo sapiens, UniProt Q7Z418).
T1 construct: gene KCNK18; homodimeric hTRESK WT expressed in Xenopus laevis oocytes
T1 sequence (Q7Z418 1-384): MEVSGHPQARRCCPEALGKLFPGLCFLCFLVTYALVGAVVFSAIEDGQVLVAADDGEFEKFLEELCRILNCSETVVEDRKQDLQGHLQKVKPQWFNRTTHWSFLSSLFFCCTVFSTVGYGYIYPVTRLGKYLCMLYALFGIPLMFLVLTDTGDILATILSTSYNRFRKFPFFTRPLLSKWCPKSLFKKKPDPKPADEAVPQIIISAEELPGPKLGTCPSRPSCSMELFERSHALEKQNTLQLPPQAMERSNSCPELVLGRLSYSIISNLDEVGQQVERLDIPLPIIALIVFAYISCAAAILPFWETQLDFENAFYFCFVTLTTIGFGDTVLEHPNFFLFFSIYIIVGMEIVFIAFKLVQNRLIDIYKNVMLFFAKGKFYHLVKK
In words: TEVC dose-response in Xenopus oocytes, supported by alanine scan. The assay is classed as cell-based.

As usually defined, the EC50 is the midpoint of the concentration-response curve. A higher EC50 goes with lower potency in that assay.

Compound `Oc1ccc(Cl)c2cccnc12` [clx, 5-chloro-8-hydroxyquinoline] came in with an EC50 of 64 ± 11 µM.
